Experimental data reported in patent EP4803142A2 (Kayothera Inc., priority 2021, dated 2022).

What was measured:
hALDH1a2 = target: T1, hALDH1a2 (Homo sapiens, UniProt O94788); experiment: biochemical; settings: read-out: hAldhla2 IC50
T1 construct: pET-Aldh1a2 transformed BL21-DE3 cultures; cell extracts
T1 sequence (O94788 1-518): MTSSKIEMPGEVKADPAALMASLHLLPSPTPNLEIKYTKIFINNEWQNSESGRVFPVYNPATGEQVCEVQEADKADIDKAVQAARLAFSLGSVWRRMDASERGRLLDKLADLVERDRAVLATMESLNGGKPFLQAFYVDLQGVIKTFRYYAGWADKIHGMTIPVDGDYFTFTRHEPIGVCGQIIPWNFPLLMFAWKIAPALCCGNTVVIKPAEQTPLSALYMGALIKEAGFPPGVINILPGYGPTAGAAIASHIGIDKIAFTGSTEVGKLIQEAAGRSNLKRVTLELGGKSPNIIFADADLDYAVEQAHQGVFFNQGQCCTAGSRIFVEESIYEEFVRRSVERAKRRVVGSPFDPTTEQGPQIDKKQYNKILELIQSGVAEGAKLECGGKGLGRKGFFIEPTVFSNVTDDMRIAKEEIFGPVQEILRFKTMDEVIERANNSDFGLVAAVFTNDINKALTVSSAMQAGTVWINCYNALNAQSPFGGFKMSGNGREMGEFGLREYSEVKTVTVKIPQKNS
Method: (§1) Biological Example 5C. Aldh1a2 Enzyme Inhibition Assay
(§2) Cell extracts were spun at 16000 x g for 5 minutes.
(§3) Recombinant enzyme and inhibitor added immediately before assay. Reaction rate measured by resorufin fluorescence. […]
(§4) Table 3B. IC50 values (nM) for inhibition of hALDH1a2 and mALDH1a2 of selected compounds

mALDH1a2 = target: T2, mALDH1a2 (Mus musculus, UniProt Q62148); experiment: biochemical; settings: read-out: mAldhla2 IC50
T2 construct: pET-Aldh1a2 transformed BL21-DE3 cultures; cell extracts
T2 sequence (Q62148 1-518): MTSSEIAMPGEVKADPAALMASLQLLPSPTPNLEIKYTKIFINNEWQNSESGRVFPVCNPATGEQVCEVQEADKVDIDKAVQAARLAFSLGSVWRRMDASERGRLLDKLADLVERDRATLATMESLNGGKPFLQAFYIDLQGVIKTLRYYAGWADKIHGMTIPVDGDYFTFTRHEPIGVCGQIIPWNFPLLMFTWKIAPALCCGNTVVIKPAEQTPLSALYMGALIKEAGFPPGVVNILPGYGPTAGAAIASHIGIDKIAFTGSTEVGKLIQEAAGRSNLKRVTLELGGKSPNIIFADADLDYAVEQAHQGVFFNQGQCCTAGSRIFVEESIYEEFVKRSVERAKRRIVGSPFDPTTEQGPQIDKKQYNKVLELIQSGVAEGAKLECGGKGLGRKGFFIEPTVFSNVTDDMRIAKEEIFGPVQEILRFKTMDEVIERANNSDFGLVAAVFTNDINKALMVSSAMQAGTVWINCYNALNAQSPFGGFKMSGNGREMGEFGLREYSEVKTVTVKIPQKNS
Method: as §1, §2, §3, §4

Row | SMILES | IC50 (hALDH1a2) [µM] | IC50 (mALDH1a2) [µM]
1 | O=C1CCc2cc(NCc3cc[nH]c3)c(F)cc2N1 [compound 17] | 10 | 10
2 | CC1(C)Cc2cc(NC3COc4ccccc4C3)ccc2NC1=O (stereo not drawn) [compound 105] | > 10 | > 10
3 | Cc1cnccc1C(=O)Nc1ccc2c(c1)CCC(=O)N2 [compound 21] | 30 | 32
4 | CC(C)c1cnccc1C(=O)Nc1cc2c(cc1F)NC(=O)CC2 [compound 6] | > 10 | 10
5 | O=C1CCc2cc(Nc3nccc4ccccc34)ccc2N1 [compound 22] | 20 | 25
6 | CC(C)=Cc1cnc(C)cc1C(=O)Nc1ccc2c(c1)CC(C)(C)C(=O)N2 [compound 69] | > 10 | > 10
7 | CCc1cnccc1C(=O)Nc1cc2c(cc1Cl)NC(=O)CC2 [compound 70] | > 10 | 2.96
8 | Cc1cnccc1C(=O)Nc1cc2c(cc1F)NC(=O)CC2 [compound 15] | 10 | 10
9 | CCc1c[nH]c(=O)cc1C(=O)Nc1ccc2c(c1)CCC(=O)N2 [compound 51] | > 10 | > 10
10 | Cc1ccc(C(=O)Nc2ccc3c(c2)CCC(=O)N3)c(C)c1 [compound 12] | > 10 | > 10
11 | CCc1cnccc1C(=O)Nc1cc2c(cc1F)NC(=O)C(C)(C)C2 [compound 38] | > 10 | > 10
12 | N#Cc1cccc2nc(Nc3ccc4c(c3)CCC(=O)N4)ccc12 [compound 86] | 10 | 0.084
13 | Cn1ccc2nc(Nc3ccc4c(c3)CC(C)(C)C(=O)N4)ccc21 [compound 113] | > 10 | > 10
14 | CCc1cccnc1C(=O)Nc1cc2c(cc1Cl)NC(=O)CC2 [compound 72] | > 10 | > 10
15 | CC1(C)Cc2cc(Nc3c[nH]c4c(c3=O)CCCC4)ccc2NC1=O [compound 135] | > 10 | > 10
16 | Cc1ccc(C(=O)Nc2ccc3c(c2)CCC(=O)N3)cc1C [compound 11] | > 10 | > 10
17 | N#Cc1ccc2nc(Nc3ccc4c(c3)CCC(=O)N4)ccc2c1 [compound 88] | > 10 | > 10
18 | CCc1c[n+]([O-])ccc1C(=O)Nc1ccc2c(c1)CCC(=O)N2 [compound 73] | > 10 | > 10
19 | COc1cnccc1C(=O)Nc1cc2c(cc1F)NC(=O)C(C)(C)C2 [compound 41] | 9 | 11.1
20 | CC1(C)Cc2cc(NN3CCC(c4ccccc4)C3=O)ccc2NC1=O (stereo not drawn) [compound 106] | > 10 | > 10
21 | O=C1CCc2cc(NCc3ccccc3)ccc2N1 [compound 14] | 10 | 10
22 | CC1(C)Cc2cc(Nc3cnc4ccc(C(=O)O)cc4n3)ccc2NC1=O [compound 118] | > 10 | > 10
23 | CCc1cnc(C)cc1C(=O)Nc1cc2c(cc1F)NC(=O)CC2 [compound 8] | 9 | 5

Compounds with a lower IC50 (hALDH1a2), results first:

Row | IC50 (hALDH1a2) [µM] | IC50 (mALDH1a2) [µM] | SMILES
24 | 1.06 | 0.224 | O=C1CCc2cc(NC(=O)c3ccncc3C(F)(F)F)ccc2N1 [compound 54]
25 | 4 | 3.33 | CCc1cnccc1CNc1cc2c(cc1F)NC(=O)CC2 [compound 3]
26 | 0.071 | 0.053 | Cc1nc(Nc2ccc3c(c2)CC(C)(C)C(=O)N3)nc2ccccc12 [compound 132]
27 | 0.099 | 0.097 | CC1(C)Cc2cc(Nc3ccc4ccccc4n3)c(F)cc2NC1=O [compound 48]
28 | 0.04 | 0.031 | CC1(C)Cc2cc(Nc3cnc4ccccc4n3)ccc2NC1=O [compound 92]
29 | 0.346 | 0.3 | CC1(C)Cc2cc(Nc3ccc4c(Cl)cccc4n3)ccc2NC1=O [compound 112]
30 | 5 | 4 | CCc1ccccc1C(=O)Nc1cc2c(cc1F)NC(=O)CC2 [compound 4]
31 | 0.894 | 1.29 | CC1(C)Cc2cc(Nc3ccc4c(n3)CCCC4=O)ccc2NC1=O [compound 127]
32 | 0.248 | 0.162 | CC1(C)Cc2cc(Nc3ccc4ccccc4n3)ccc2NC1=O [compound 46]
33 | 5 | 2.95 | Cc1ccccc1C(=O)Nc1ccc2c(c1)CCC(=O)N2 [compound 13]
34 | 0.316 | 0.184 | CC1(C)Cc2cc(Nc3nc4ccccc4o3)ccc2NC1=O [compound 99]
35 | 0.214 | 0.165 | O=C1CCc2cc(Nc3cnc4ccccc4n3)ncc2N1 [compound 126]
36 | 1.2 | 3 | CCc1cnccc1/C=C/c1ccc2c(c1)CC(C)(C)C(=O)N2 [compound 43]
37 | 0.809 | 0.921 | CC1(C)Cc2cc(Nc3ccc4ccncc4n3)ccc2NC1=O [compound 94]
38 | 0.099 | 0.072 | O=C1CCc2cc(Nc3ccc4ccccc4n3)c(F)cc2N1 [compound 47]
39 | 0.125 | 0.097 | Cc1cc2ccccc2nc1Nc1ccc2c(c1)CC(C)(C)C(=O)N2 [compound 134]
